From US7964607B2, “Pyrazolo[3,4-d]pyrimidine compounds” (Pfizer Inc., priority 2007, dated 2011)

These molecules were tested against T1, human recombinant PDE9 enzyme (Homo sapiens, UniProt O76083) (assay: Phosphodiesterase 9 (PDE9) inhibitory activity, Scintillation Proximity (SPA) assay). Settings: not given.
T1 construct: made in house; host or cells: SF-9 insect cells
T1 sequence (O76083 whole entry): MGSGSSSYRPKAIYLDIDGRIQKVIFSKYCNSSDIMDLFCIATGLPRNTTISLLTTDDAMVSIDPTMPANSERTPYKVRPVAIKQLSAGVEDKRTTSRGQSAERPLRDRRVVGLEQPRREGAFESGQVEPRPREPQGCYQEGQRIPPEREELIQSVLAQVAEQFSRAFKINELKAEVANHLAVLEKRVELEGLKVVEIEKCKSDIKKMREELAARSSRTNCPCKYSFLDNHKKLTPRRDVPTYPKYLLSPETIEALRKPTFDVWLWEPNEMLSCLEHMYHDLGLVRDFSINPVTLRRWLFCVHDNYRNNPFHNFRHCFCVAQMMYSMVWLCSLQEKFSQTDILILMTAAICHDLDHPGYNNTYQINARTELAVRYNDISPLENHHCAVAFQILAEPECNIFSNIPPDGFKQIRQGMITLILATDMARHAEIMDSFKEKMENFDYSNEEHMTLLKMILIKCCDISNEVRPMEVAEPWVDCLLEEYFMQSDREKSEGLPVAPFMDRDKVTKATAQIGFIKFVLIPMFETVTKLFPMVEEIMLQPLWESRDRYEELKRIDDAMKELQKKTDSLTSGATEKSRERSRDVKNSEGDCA
Type: biochemical
Procedure: Phosphodiesterase 9 (PDE9) Inhibitory Activity The PDE9 assay was performed using the Phosphodiesterase Scintillation Proximity (SPA) assay (GE Healthcare Life Sciences). […] The human recombinant PDE9 enzyme was generated in SF-9 cells, the cell pellets were sonicated in buffer (20 mM TRIS, 2 mM benzamidine, 1 mM EDTA, 250 mM sucrose, 100 μM PMSF, pH 7.5 with HCl), centrifuged at 40,000×g for 20 min at 4° C. The supernatants were stored at −80° C. […] Test compounds were dissolved in DMSO, diluted in DI H2O and serially diluted in 20% DMSO/80% H2O, for a final concentration of 2% DMSO. For the assay the PDE9 was diluted with assay buffer such that 20% or less of the substrate was hydrolyzed to 5′GMP. Each assay well contained 10 μl of test compound or solvent, 40 μl of [^3H]CGMP and 50 μl of enzyme, background was determined by a high concentration of a PDE inhibitor. The assay was initiated with the addition of the enzyme and carried out at room temperature for 30 min. […] The plates were sealed, vortexed, allowed to set for >300 min, then counted in a Wallac TriLux MicroBeta LSC.
With `Cc1cnc(CN2C[C@@H](C)[C@H](c3nc4c(cnn4C4CCOCC4)c(=O)[nH]3)C2)cn1` [Example 75, 6-{(3S,4S)-4-methyl-1-[(5-methylpyrazin-2-yl)methyl]pyrrolidin-3-yl}-1-(tetrahydro-2H-pyran-4-yl)-1,5-dihydro-4H-pyrazolo[3,4-d]pyrimidin-4-one] the IC50 was 5.46 nM.

Same assay, conditions: human recombinant PDE9 from SF-9 cells; 50 nM [3H]cGMP; room temperature, 30 min; Examples 3-114; read-out: G5678A (U): IC50
`C[C@@H]1CN(Cc2nc3ccccc3n2C)C[C@H]1c1nc2c(cnn2C2CCCC2)c(=O)[nH]1` [Example 49, 1-cyclopentyl-6-{(3S,4S)-4-methyl-1-[(1-methyl-1H-benzimidazol-2-yl)methyl]pyrrolidin-3-yl}-1,5-dihydro-4H-pyrazolo[3,4-d]pyrimidin-4-one] showed an IC50 of 4.55 nM.
Molecule `C[C@@H]1CN(Cc2ccnc3ccccc23)C[C@H]1c1nc2c(cnn2C2CCCC2)c(=O)[nH]1` (racemic) [Example 10, 1-cyclopentyl-6-[(3,4-trans)-4-methyl-1-(quinolin-4-ylmethyl)pyrrolidin-3-yl]-1,5-dihydro-4H-pyrazolo[3,4-d]pyrimidin-4-one] has an IC50 of 4.98 nM.
Molecule `C[C@@H]1CN(Cc2cccnc2)C[C@H]1c1nc2c(cnn2C2CCCC2)c(=O)[nH]1` (racemic) [Example 7, 1-cyclopentyl-6-[(3,4-trans)-4-methyl-1-(pyridin-3-ylmethyl)pyrrolidin-3-yl]-1,5-dihydro-4H-pyrazolo[3,4-d]pyrimidin-4-one] has an IC50 of 11.6 nM.
`C[C@@H]1CN(Cc2cnc3ccccc3n2)C[C@H]1c1nc2c(cnn2C2CCCC2)c(=O)[nH]1` (racemic) [Example 12, 1-cyclopentyl-6-[(3,4-trans)-4-methyl-1-(quinoxalin-2-ylmethyl)pyrrolidin-3-yl]-1,5-dihydro-4H-pyrazolo[3,4-d]pyrimidin-4-one] was tested, and the IC50 was 7.23 nM.
For `C[C@@H]1CN(Cc2cc3ccccc3nn2)C[C@H]1c1nc2c(cnn2C2CCCC2)c(=O)[nH]1` [Example 51, 6-[(3S,4S)-1-(cinnolin-3-ylmethyl)-4-methylpyrrolidin-3-yl]-1-cyclopentyl-1,5-dihydro-4H-pyrazolo[3,4-d]pyrimidin-4-one], the IC50 was 8.19 nM.
Work on `C[C@@H]1CN(Cc2ccc(C(F)(F)F)nc2)C[C@H]1c1nc2c(cnn2C2CCOCC2)c(=O)[nH]1` [Example 80, 6-[(3S,4S)-4-methyl-1-{[6-(trifluoromethyl)pyridin-3-yl]methyl}pyrrolidin-3-yl]-1-(tetrahydro-2H-pyran-4-yl)-1,5-dihydro-4H-pyrazolo[3,4-d]pyrimidin-4-one] yielded an IC50 of 3.72 nM.
For `C[C@@H]1CN(Cc2ccnc3ccccc23)C[C@H]1c1nc2c(cnn2C2CCOCC2)c(=O)[nH]1` [Example 86, 6-[(3S,4S)-4-methyl-1-(quinolin-4-ylmethyl)pyrrolidin-3-yl]-1-(tetrahydro-2H-pyran-4-yl)-1,5-dihydro-4H-pyrazolo[3,4-d]pyrimidin-4-one], the IC50 was 1.44 nM.
In the case of `C[C@@H]1CN(Cc2ccc(C(F)(F)F)nc2)C[C@H]1c1nc2c(cnn2C2CCCC2)c(=O)[nH]1` (racemic) [Example 11, 1-cyclopentyl-6-[(3,4-trans)-4-methyl-1-{[6-(trifluoromethyl)pyridin-3-yl]methyl}pyrrolidin-3-yl]-1,5-dihydro-4H-pyrazolo[3,4-d]pyrimidin-4-one], the IC50 is reported as 18.9 nM.
For `COc1ccc(CN2C[C@@H](C)[C@H](c3nc4c(c(C)nn4C4CCOCC4)c(=O)[nH]3)C2)cn1` [Example 94, 6-{(3S,4S)-1-[(6-methoxypyridin-3yl)methyl]-4-methylpyrrolidin-3-yl}-3methyl-1-(tetrahyrdro-2H-pyran-4-yl)-1,5-dihydro-4H-pyrazolo[3,4-d]pyrimidin-4-one], the IC50 was 14.2 nM.
`CC[C@@H]1CN(C(=O)c2cnc3ccccc3n2)C[C@H]1c1nc2c(cnn2C2CCOCC2)c(=O)[nH]1` [Example 110, 6-[(3S,4S)-4-ethyl-1-(quinoxalin-2-ylcarbonyl)pyrrolidin-3-yl]-1-(tetrahydro-2H-pyran-4-yl)-1,5-dihydro-4H-pyrazolo[3,4-d]pyrimidin-4-one] was tested, and the IC50 was 2.59 nM.
In the case of `C[C@@H]1CN(Cc2ccc(F)cc2F)C[C@H]1c1nc2c(cnn2C2CCOCC2)c(=O)[nH]1` [Example 100, 6-[(3S,4S)-1-(2,4-difluorobenzyl)-4-methylpyrrolidin-3-yl]-1-(tetrahydro-2H-pyran-4-yl)-1,5-dihydro-4H-pyrazolo[3,4-d]pyrimidin-4-one], the IC50 is reported as 22.7 nM.

Same assay, conditions: human recombinant PDE9 from SF-9 cells; 50 nM [3H]cGMP; room temperature, 30 min; additional compounds Ex. 115-228; read-out: G5678A (U):IC50
With `C[C@@H]1CN(Cc2cccc(OC(F)F)c2)C[C@H]1c1nc2c(cnn2C2CCCC2)c(=O)[nH]1` (racemic) [Example 183, 1-cyclopentyl-6-{(3,4-trans)-1-[3-(difluoromethoxy)benzyl]-4-methylpyrrolidin-3-yl}-1,5-dihydro-4H-pyrazolo[3,4-d]pyrimidin-4-one] the IC50 was 29.8 nM.
`C[C@@H]1CN(Cc2c(F)cccc2F)C[C@H]1c1nc2c(cnn2C2CCCC2)c(=O)[nH]1` (racemic) [Example 210, 1-cyclopentyl-6-[(3,4-trans)-1-(2,6-diflurobenzyl)-4-methylpyrrolidin-3-yl]-1,5-dihydro-4H-pyrazolo[3,4-d]pyrimidin-4-one] was tested, and the IC50 was 16.2 nM.
`Cc1cc(CN2CC(C)C(c3nc4c(cnn4C4CCCC4)c(=O)[nH]3)C2)n(C)n1` (stereo not drawn) [Example 133, 1-cyclopentyl-6-{(3,4-trans)-1-[(1,3-dimethyl-1H-pyrazol-5-yl)methyl]-4-methylpyrrolidin-3-yl}-1,5-dihydro-4H-pyrazolo[3,4-d]pyrimidin-4-one] showed an IC50 of 33.7 nM.
`CCOc1ncccc1CN1C[C@@H](C)[C@H](c2nc3c(cnn3C3CCCC3)c(=O)[nH]2)C1` (racemic) [Example 120, 1-cyclopentyl-6-{(3,4-trans)-1-[(2-ethoxypyridin-3-yl)methyl]-4-methylpyrrolidin-3-yl}-1,5-dihydro-4H-pyrazolo[3,4-d]pyrimidin-4-one] gave an IC50 of 62.7 nM.
`C[C@@H]1CN(Cc2ccc(F)cc2F)C[C@H]1c1nc2c(cnn2C2CCCC2)c(=O)[nH]1` (racemic) [Example 147, 1-cyclopentyl-6-[(3,4-trans)-1-(2,4-difluorobenzyl)-4-methylpyrrolidin-3-yl]-1,5-dihydro-4H-pyrazolo[3,4-d]pyrimidin-4-one] gave an IC50 of 79.8 nM.
Work on `Cc1cccc(C)c1CN1C[C@@H](C)[C@H](c2nc3c(cnn3C3CCCC3)c(=O)[nH]2)C1` (relative stereo) [Example 195, 1-cyclopentyl-6-[(3,4-trans)-1-(2,6-dimethylbenzyl)-4-methylpyrrolidin-3-yl]-1,5-dihydro-4H-pyrazolo[3,4-d]pyrimidin-4-one] yielded an IC50 of 198 nM.
`Cc1ccc(CN2C[C@@H](C)[C@H](c3nc4c(cnn4C4CCCC4)c(=O)[nH]3)C2)cc1C` (racemic) [Example 198, 1-cyclopentyl-6-[(3,4-trans)-1-(3,4-dimethylbenzyl)-4-methylpyrrolidin-3-yl]-1,5-dihydro-4H-pyrazolo[3,4-d]pyrimidin-4-one] showed an IC50 of 93.6 nM.
`C[C@@H]1CN(CCCc2ccccc2)C[C@H]1c1nc2c(cnn2C2CCCC2)c(=O)[nH]1` (racemic) [Example 201, 1-cyclopentyl-6-[(3,4-trans)-4-methyl-1-(3-phenylpropyl)pyrrolidin-3-yl]-1,5-dihydro-4H-pyrazolo[3,4-d]pyrimidin-4-one] showed an IC50 of 146 nM.
Molecule `C[C@@H]1CN(Cc2cccc(F)c2F)C[C@H]1c1nc2c(cnn2C2CCCC2)c(=O)[nH]1` (racemic) [Example 127, 1-cyclopentyl-6-[(3,4-trans)-1-(2,3-difluorobenzyl)-4-methylpyrrolidin-3-yl]-1,5-dihydro-4H-pyrazolo[3,4-d]pyrimidin-4-one] has an IC50 of 61.7 nM.
Molecule `C[C@@H]1CN(Cc2cc(Cl)cc(Cl)c2)C[C@H]1c1nc2c(cnn2C2CCCC2)c(=O)[nH]1` (racemic) [Example 187, 1-cyclopentyl-6-[(3,4-trans)-1-(3,5-dichlorobenzyl)-4-methylpyrrolidin-3-yl]-1,5-dihydro-4H-pyrazolo[3,4-d]pyrimidin-4-one] has an IC50 of 70.9 nM.
Work on `C[C@@H]1CN(Cc2c(F)cccc2Cl)C[C@H]1c1nc2c(cnn2C2CCCC2)c(=O)[nH]1` (racemic) [Example 117, 6-[(3,4-trans)-1-(2-chloro-6-fluorobenzyl)-4-methylpyrrolidin-3-yl]-1-cyclopentyl-1,5-dihydro-4H-pyrazolo[3,4-d]pyrimidin-4-one] yielded an IC50 of 126 nM.
Work on `Cc1ccc(CN2C[C@@H](C)[C@H](c3nc4c(cnn4C4CCCC4)c(=O)[nH]3)C2)c(F)c1F` (racemic) [Example 134, 1-cyclopentyl-6-[(3,4-trans)-1-(2,3-difluoro-4-methylbenzyl)-4-methylpyrrolidin-3-yl]-1,5-dihydro-4H-pyrazolo[3,4-d]pyrimidin-4-one] yielded an IC50 of 93.5 nM.
Molecule `COc1cccc(F)c1CN1C[C@@H](C)[C@H](c2nc3c(cnn3C3CCCC3)c(=O)[nH]2)C1` (racemic) [Example 146, 1-cyclopentyl-6-[(3,4-trans)-1-(2-fluoro-6-methoxybenzyl)-4-methylpyrrolidin-3-yl]-1,5-dihydro-4H-pyrazolo[3,4-d]pyrimidin-4-one] has an IC50 of 165 nM.
With `Cc1ccccc1CN1C[C@@H](C)[C@H](c2nc3c(cnn3C3CCCC3)c(=O)[nH]2)C1` (relative stereo) [Example 180, 1-cyclopentyl-6-[(3,4-trans)-4-methyl-1-(2-methylbenzyl)pyrrolidin-3-yl]-1,5-dihydro-4H-pyrazolo[3,4-d]pyrimidin-4-one] the IC50 was 83.8 nM.
